Measurements reported in paper PMC10753699, “Synthesis of Some New 1,3,4-Oxadiazole Derivatives and Evaluation of Their Anticancer Activity” (ACS Omega, 2023).

What was measured:
C6 rat glioma cell line = assay: MTT cell viability / cytotoxicity on C6; format: cell-based; conditions: mean ± S.D. of three determinations
Description: (§1) The MTT (3-(4,5-dimethylthiazol-2-yl)-2,5-diphenyltetrazolium bromide) method was applicated to assess the cell viability of L929, C6 and A549 cell lines against the tested compounds according to the reported data.[51] In 96-well plates with a flat bottom, the A549, C6, and L929 cells were cultivated at a density of 5 × 10^3 cells per well. […] After addition, they were incubated for a full day in culture wells. Following the incubation period, 20 μL of phosphate-buffered saline (PBS) (Gibco, Paisley, UK) containing 5 mg/mL MTT powder (Sigma-Aldrich, St. Louis, MO, USA) was added to each well. The medium was taken out of the plate and replaced with 100 μL of DMSO in each well to dissolve the dye. This was left for 2 to 4 h under the same conditions and then left for 10 min. At the conclusion of the procedure, purple formazan, the reduction product of the MTT agent, was formed by the mitochondrial dehydrogenase enzyme of intact cells. A microtiter plate reader (BioTek Plate Reader, Winooski, VT, USA) was used to measure the cells at 540 nm. Cell viability was measured as a percentage and contrasted with that of the cells in the control group. Half-maximal inhibitory concentration 50 (IC50) values were determined by repeating each concentration in three wells and identifying the drug concentrations that decreased the absorbance to 50% of control values. The medium control served as the basis for calculating the percentage of viable cells.

caspase-3 = assay: Caspase-3 activation in A549 cells; format: cell-based, human; conditions: A549, IC50 of the compounds, 24 h
Description: The Spectrofluorometric Caspase-3 Assay kit (BD Pharmingen, Franklin Lakes, NJ) was used to assess the activation of caspase-3. The purpose of the kit was to measure the early indicator of cells going through apoptosis, known as caspase-3 or the DEVD-cleaving activity. First, 1 × 10^6 cells/mL of cells were resuspended in cold cell lysis buffer, rinsed with PBS, and then allowed to sit on ice for 30 min. […] In each reaction, a well containing 0.2 mL of 1 x HEPES buffer was filled with […] of reconstituted AcDEVD-AMC, a synthetic tetrapeptide fluorogenic substrate for caspase-3 activity. Each reaction/well received 20 μL of cell lysate. The reaction mixtures were incubated at 37 °C for 1 h. Using a microplate reader (Perkin-Elmer/Victor/X3) with an excitation wavelength of 380 nm and an emission wavelength of 460 nm, the amount of AMC released from Ac-DEVD-AMC was quantified. When compared with controls, apoptotic cell lysates containing active caspase-3 produced a significant emission. […] For all doses, duplicate wells were used. This experiment was performed according to Yurttaş et al.[52]

MMP-9 enzyme = target: T1, MMP-9 enzyme (Homo sapiens, UniProt P14780); assay: MMP-9 colorimetric inhibition assay; format: biochemical; conditions: for inhibition at 100 µg/mL: at 100 μg/mL
T1 construct: purchased EnzoLife Sciences Inc. (Farmingdale, New York, NY, USA)
From the text: As described in our previous study,[36] the method was applied in exactly the same manner. EnzoLife Sciences Inc. provided MMP-9 colorimetric kits (Farmingdale, New York, NY, USA). The MMP Colorimetric Drug Discovery Kits are a comprehensive test technique that uses a thiopeptide (Ac-PLG-[2-mercapto-4-methyl-pentanoyl]-LG-OC2H5) as a chromogenic substrate to screen MMP inhibitors. Using a microplate reader (BioTek, PowerWave, Gen5 software, Winooski, VT, USA) at room temperature, the UV absorbance was measured at 412 nm. NNGH was employed as an inhibitor of control.

[1] = system: A549 human lung cancer cell line; assay: MTT cell viability / cytotoxicity on A549; format: cell-based; conditions: for IC50: Homo sapiens, A549, A549 cell line, MTT, mean ± S.D. of three determinations
Description: (§2) In 75 cm^2 sterile plastic tissue culture flasks, the human lung adenocarcinoma A549 and the mouse fibroblast L929 cell lines were cultured in 90% RPMI (Sigma, Deisenhofen, Germany) media supplemented with 10% (v/v) FBS (Gibco, Paisley, UK) and adherent monolayers of penicillin/streptomycin (100 units/mL) from Gibco, Paisley, UK. These cells were cultured at 37 °C in an environment that was humidified and contained 5% CO2.
as §1

[2] = system: L929 murine fibroblast cell line; assay: MTT cell viability / cytotoxicity on L929 (healthy cells); format: cell-based, mouse; conditions: Mus musculus, L929, L929 healthy cell line, mean ± S.D. of three determinations
Description: as §2, §1

A549 cells [3] = assay: Cell cycle analysis by flow cytometry; format: cell-based, human; conditions: A549, 24 h incubation
Description: Following a 24 h incubation period with the compounds, a cell cycle analysis measurement methodology was implemented in compliance with the manufacturer’s instructions for A549 cells (BD, Biosciences). Next, the cells were immersed in citrate buffer for a short while. At room temperature, the cells were centrifuged for 5 min at 400 g. After the supernatant was decanted, 250 μL of solution A was added to the pellet, and it was allowed to sit at room temperature for 10 min. Solution B (200 μL) was then added, carefully mixed, and incubated at room temperature for 10 min. Solution C (200 μL) was then added. It was gently mixed, allowed to stand at 4 °C for 10 min in the dark, and then examined using BD Bioscience’s MODFID software on a flow cytometer. This method was applied in our previous study.[54]

A549 cells [4] = assay: Mitochondrial membrane depolarization (JC-1, flow cytometry); format: cell-based, human; conditions: A549, IC50 concentration, 24 h
Description: Staining of cells with JC-1 was realized according to the manufacturer’s recommendations of BD, Pharmingen Flow cytometry kit. […] For this purpose, cells were seeded at an optimal density in six-well plates (not exceeding 1 × 10^6/mL cells). The cells were then incubated with the substances to be tested at the appropriate concentration and time. After the treatment, each cell suspension was taken into a 15 mL polystyrene centrifuge tube and the cells were centrifuged at 400g for 5 min and removed from the supernatant. 0.5 mL of a freshly prepared working solution was added to each pellet, and the solution was vortexed. The test cells were soaked in a JC-1 working solution at 37 °C for 10–15 min, and the cells were washed twice. In the first wash, 2 mL of 1X assay buffer was added and the cells were suspended sensitively. Then, the cells were centrifuged at 400g for 5 min and the supernatant was removed, carefully. In the second wash, 1 mL of 1X assay buffer was added and vortexed. After the cells were centrifuged at 400g for 5 min, each cell pellet was suspended in 0.5 mL 1X assay buffer and vortexed. Finally, the cell was analyzed by a flow cytometer.

A549 cells [5] = assay: Early/late apoptosis by Annexin V-FITC/PI flow cytometry; format: cell-based, human; conditions: A549, IC50 dose, 24 h incubation
Description: Phosphatidylserine externalization, a marker of early apoptosis, was assessed using the FITC Annexin V apoptosis detection kit (BD Pharmingen, San Jose, CA, USA) on a BD FACSAria flow cytometer. Following their collection, the A549 and L929 cells were twice washed in ice-cold PBS before being resuspended in 100 μL of binding buffer. The cells were treated with a volume of 5 μL (5 μg/mL) of Annexin V-FITC and PI, and they were incubated for 15 min at room temperature (20–25 °C) in the dark. Following that, 400 μL of binding buffer was added to the combination samples, and FACSDiva version 6.1.1 was used to analyze the samples on a BD FACSAria flow cytometer.

T1 sequence (P14780 107-444 limits assumed): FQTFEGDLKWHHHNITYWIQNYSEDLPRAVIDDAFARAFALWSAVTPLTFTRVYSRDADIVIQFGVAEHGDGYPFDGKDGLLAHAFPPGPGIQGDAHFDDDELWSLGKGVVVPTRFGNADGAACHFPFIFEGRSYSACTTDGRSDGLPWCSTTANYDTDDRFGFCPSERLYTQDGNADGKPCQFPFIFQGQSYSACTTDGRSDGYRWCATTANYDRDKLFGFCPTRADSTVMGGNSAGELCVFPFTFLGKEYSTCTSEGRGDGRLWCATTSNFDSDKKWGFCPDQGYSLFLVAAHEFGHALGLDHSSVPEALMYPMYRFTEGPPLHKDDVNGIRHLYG

Row | melting point | IC50 (MMP-9 enzyme) | inhibition at 100 µg/mL (MMP-9 enzyme) | Structure (SMILES) | IC50 (C6 rat glioma cell line) | % (+): caspase-3 activity positive cells (caspase-3) | % (−): caspase-3 activity negative cells (caspase-3) | IC50 [1] | IC50 [2] | % S (A549 cells [3]) | G0/G1% (A549 cells [3]) | G2/M % (A549 cells [3]) | mitochondrial membrane depolarization % (A549 cells [4]) | mitochondrial membrane polarization % (A549 cells [4]) | Q1: necrotic cells (A549 cells [5]) | Q2: late apoptotic cells (A549 cells [5]) | Q3: viable cells (A549 cells [5]) | Q4: early apoptotic cells (A549 cells [5]) | Q2 + Q4: early and late apoptotic cells (A549 cells [5]) | SI (L929/A549) ([1]; selectivity index = IC50 on normal cells/IC50 on cancer cells)
1 | 207 to 209 °C | 24.5 ± 2.12 µM | > 75% | CC(=O)Nc1ccccc1OCc1nnc(SCC(=O)Nc2nc3ccc(F)cc3s2)o1 [Compound 4f, 2-[(5-((2-Acetamidophenoxy)methyl)-1,3,4-oxadiazol-2-yl)thio]-N-(6-fluorobenzothiazol-2-yl)acetamide] | 13 ± 3.72 µM | 3.4% | 97.1% | 6.62 ± 0.32 µM | 19.4 ± 0.89 µM | 0.0% | 63.53% | 36.47% | 13.03% | 85.97% | 26.25% | 6.7% | 58.53% | 8.51% |  | 
2 | 188 to 191 °C | 1.65 ± 0.21 µM | > 75% | CC(=O)Nc1ccccc1OCc1nnc(SCC(=O)Nc2ccccc2)o1 [Compound 4h, 2-[(5-((2-Acetamidophenoxy)methyl)-1,3,4-oxadiazol-2-yl)thio]-N-phenylacetamide] | > 1000 µM | 2.7% | 97.5% | < 0.14 µM | 31.4 ± 1.76 µM | 0.0% | 89.66% | 10.34% | 8.75% | 90.74% | 26.94% | 7.28% | 53.94% | 11.84% | 19.20% | 
3 | 189 to 194 °C |  | 41.4 ± 1.85% | CC(=O)Nc1ccccc1OCc1nnc(SCC(=O)Nc2nc3ccccc3s2)o1 [Compound 4a, 2-[(5-((2-Acetamidophenoxy)methyl)-1,3,4-oxadiazol-2-yl)thio]-N-(benzothiazol-2-yl)acetamide] | 18.5 ± 5.58 µM |  |  | 22.3 ± 1.67 µM | 586 ± 22.9 µM |  |  |  |  |  |  |  |  |  |  | 26.250
